The record followed here is ChEMBL document CHEMBL3507680, “University of Dundee, Gates Library screen for HepG2 cell viability”.

A short description of this data set: Human HepG2 cell viability assay in 384 well format. It is filed as toxicity, cell-based. On the set-up: dose 125 nL, time 70.5 hour; concentration not given beside the values. The following applies: HepG2 cells, read-out: Inhibition.

Take `Cc1ccc2c(c1)nc1n2[C@@H](CNC(=O)c2cncnc2)COC1`: the cytotoxicity at 70.5 h was -2.41%.

In the case of `COc1ccc2c(c1)nc1n2[C@@H](CNC(=O)c2cccnc2)COC1`, the cytotoxicity at 70.5 h turned out to be 4.29%.

Regarding `c1cc(-c2noc([C@@H]3CCCN3CC3CC3)n2)cc(N2CCCC2)n1`, the cytotoxicity at 70.5 h is -11.8%.

As to `CC(C)CNC[C@H]1COCc2nc3cccnc3n21`, the cytotoxicity at 70.5 h is 10%.

With `CS(=O)(=O)N1C[C@@H]2OCC(=O)N(CC3CCC3)[C@@H]2C1`, the cytotoxicity at 70.5 h was -6.88%.

For the molecule `O=C(N1CCOCC1)N1CCOC[C@H](Oc2ccc(C(F)(F)F)cc2)C1`, the cytotoxicity at 70.5 h was -5.44%.

For `Cc1cccc(CN2CCN3C(=O)NC[C@H]3C2)n1`, the cytotoxicity at 70.5 h was -2.26%.

For `FC(F)(F)c1ccccc1CN1CCOC[C@H](Oc2cccnc2)C1`, the cytotoxicity at 70.5 h turned out to be 1.03%.

Regarding `CS(=O)(=O)NC[C@H]1Cn2c(-c3ccccc3)cnc2CO1`, the cytotoxicity at 70.5 h was -7.36%.

For `O=C1COC[C@H]([C@H](O)c2ccc(NC(=O)c3ccco3)cc2)N1`, the cytotoxicity at 70.5 h was -0.619%.

Take `CC(C)(C)c1c[nH]c([C@@H]2COCCN2C2CCC2)n1`: the cytotoxicity at 70.5 h is -4.17%.

In the case of `COC(=O)[C@@H]1Cc2c[nH]c3cccc(c23)[C@H](CC(C)C)N1`, the cytotoxicity at 70.5 h is -2.26%.

On to `CC(C)NC(=O)N1C[C@@H](F)[C@@H](OCc2nc3ccccc3o2)C1`, for which the cytotoxicity at 70.5 h is -0.085%.

For `Cc1ccc2nc3n(c2c1)[C@@H](CNCc1nccs1)COC3`, the cytotoxicity at 70.5 h is -5.06%.

For the molecule `COc1ccc(CNC[C@H]2COCc3nc4cccnc4n32)cc1`, the cytotoxicity at 70.5 h was -4.57%.

Take `CCN(CC)C[C@H]1CN2CC[C@H]1C[C@@H]2CNC(=O)c1ccco1`: the cytotoxicity at 70.5 h is -3.47%.

On to `COCC(=O)NC[C@H]1C[C@@H]2CCN1C[C@@H]2CN1CCc2ccccc21`, for which the cytotoxicity at 70.5 h is -3.32%.

Take `O=C(N[C@@H]1CNCCC[C@H]1O)c1ccc(OCCN2CCOCC2)cc1`: the cytotoxicity at 70.5 h is 1.5%.

As to `O[C@@H]1C[C@@H](c2nc(-c3ccccc3)no2)N(Cc2cccnc2)C1`, the cytotoxicity at 70.5 h was -2.41%.

For the molecule `Cc1ccc(S(=O)(=O)Cc2noc([C@@H]3C[C@@H](O)CN3)n2)cc1`, the cytotoxicity at 70.5 h was -3.28%.

Consider `COCCOc1ccc(-c2noc([C@@H]3CCCN3)n2)cn1`, for which the cytotoxicity at 70.5 h was -0.543%.

`Cc1ccccc1CN1CCC[C@H]1c1nc(-c2cncnc2N)no1`: the cytotoxicity at 70.5 h was -3.84%.

With `CCN(CC)C1(Cc2cc(-c3ccccn3)on2)COC1`, the cytotoxicity at 70.5 h is -4.45%.

For `CC(C)(C)CNC1(Cc2cc(C(C)(C)O)on2)COC1`, the cytotoxicity at 70.5 h was -7.44%.

As to `CC(=O)N1CCC(N2CCOC[C@H]2c2nc(-c3ccccc3)c[nH]2)CC1`, the cytotoxicity at 70.5 h was -2.43%.

As for `CS(=O)(=O)c1ccc(CNC[C@H]2COCc3nc4ccccc4n32)cc1`, the cytotoxicity at 70.5 h is 5.94%.

For the molecule `CC(=O)N1CCC(N2C[C@@H](F)[C@@H](OCc3nc4ncccc4[nH]3)C2)CC1`, the cytotoxicity at 70.5 h was -2.27%.

For `CC(=O)NC[C@H]1COCc2nc3cc(S(C)(=O)=O)ccc3n21`, the cytotoxicity at 70.5 h was -0.348%.

As for `CS(=O)(=O)c1ccc2c(c1)nc1n2[C@@H](CNCc2cccnc2)COC1`, the cytotoxicity at 70.5 h was -6.64%.

For the molecule `COc1ccc(CN2C[C@H]3CN(C(=O)c4ccno4)CCN3C2=O)cc1`, the cytotoxicity at 70.5 h was -7.88%.

On to `CN1CCC(N[C@@H]2CO[C@H](CNC(=O)c3cccs3)[C@H]2O)CC1`, for which the cytotoxicity at 70.5 h was -6.9%.

As for `O=S(=O)(c1ccc(Cl)cc1)N1CCOC[C@H](Oc2cnccn2)C1`, the cytotoxicity at 70.5 h was 0.0647%.

As for `CO[C@H]1COCCN(C(=O)c2ccc(C(F)(F)F)cc2)C1`, the cytotoxicity at 70.5 h was -4.56%.

On to `O=C(NC1CCCC1)O[C@H]1COCCN(c2nc3ccccc3s2)C1`, for which the cytotoxicity at 70.5 h stood at 3.92%.

As for `CS(=O)(=O)c1ccc(O[C@H]2COCCN(C(=O)c3ccno3)C2)cc1`, the cytotoxicity at 70.5 h was -2.76%.

Take `O=C(c1ccno1)N1CCOC[C@H](Oc2ccc(C(F)(F)F)cc2)C1`: the cytotoxicity at 70.5 h was -0.658%.

Turning to `COc1ccc(CN2CCOC[C@H](Oc3cccnc3)C2)cc1`, the cytotoxicity at 70.5 h is 4.36%.

Take `O=C(NC[C@H]1OC[C@@H](NC2CCC2)[C@@H]1O)c1cccs1`: the cytotoxicity at 70.5 h was -5.08%.

In the case of `O=C(NC[C@H]1OC[C@@H](NC2CCCCC2)[C@@H]1O)c1cccs1`, the cytotoxicity at 70.5 h was -5.2%.

Take `O=C(NC[C@H]1OC[C@@H](NC2CCCC2)[C@@H]1O)C1CCCC1`: the cytotoxicity at 70.5 h is 10.4%.

Consider `c1cc(-c2c[nH]c([C@@H]3COCCN3C3CCCCC3)n2)ccn1`, for which the cytotoxicity at 70.5 h was 0.143%.

As to `Cc1ccc(CN[C@@H]2CO[C@H](CNS(=O)(=O)c3ccccc3)[C@H]2O)cc1`, the cytotoxicity at 70.5 h was -0.953%.

With `c1ccc(CN2CCOC[C@H]2c2nc(-c3ccncc3)c[nH]2)nc1`, the cytotoxicity at 70.5 h turned out to be 1.25%.

In the case of `CC(=O)N1CCC2(CC1)CN(C(=O)c1ccc3c(c1)OCCO3)C2`, the cytotoxicity at 70.5 h came to 5.66%.

Turning to `CCN1CC2(CCCCN2C(=O)c2ccn(C)n2)CC1=O` (configuration not stated), the cytotoxicity at 70.5 h worked out at 0.273%.

For `O=C1CC2(CCCCN2C(=O)c2ccoc2)CN1Cc1ccccc1` (configuration not stated), the cytotoxicity at 70.5 h was determined as 3.41%.

On to `CC(=O)N1CCC2(CCN(CC3CCCCC3)C2)CC1`, for which the cytotoxicity at 70.5 h was 3.48%.

As for `CC(C)C(=O)N1CCC2(CC1)NC(=O)[C@H]1CN(Cc3cccnc3)C[C@H]12`, the cytotoxicity at 70.5 h is 4.61%.

For the molecule `NC(=O)N1C[C@@H]2CN(C(=O)c3ccco3)C[C@@H]2C1`, the cytotoxicity at 70.5 h is -7.36%.

As for `CC(C)NC(=O)N1CCOC2(CCNCC2)C1`, the cytotoxicity at 70.5 h was -2.57%.

For the molecule `CC(C)C(=O)NC1COC2(CCN(C(=O)c3cccnc3)CC2)C1` (configuration not stated), the cytotoxicity at 70.5 h is -3.81%.

For `O=C1CCC2(CCCN(C(=O)c3ccco3)CC2)N1` (configuration not stated), the cytotoxicity at 70.5 h is -3.81%.

For `O=S(=O)(c1cccc(Cl)c1)N1C[C@@H]2CCN[C@@H]2C1`, the cytotoxicity at 70.5 h was -0.439%.

As to `O=C1CCCC2(CCN(C(=O)c3cnccn3)CC2)N1`, the cytotoxicity at 70.5 h is -4.91%.

On to `CN(C)C1COC2(CCN(C(=O)c3cccnc3)CC2)C1` (configuration not stated), for which the cytotoxicity at 70.5 h was -6.03%.

As to `CN1C(=O)CC[C@@H]2[C@H]1CCN2S(=O)(=O)c1cccs1`, the cytotoxicity at 70.5 h was -1.06%.

On to `CC(C)NC(=O)N1CCC2(CC1)NC(=O)[C@H]1CN(C(=O)N(C)C)C[C@H]12`, for which the cytotoxicity at 70.5 h is -3.94%.

For the molecule `CCS(=O)(=O)N1CCC2(CC1)CN(C(=O)N(C)C)Cc1ccccc12`, the cytotoxicity at 70.5 h is -2.71%.

Turning to `C[C@H]1C[C@H]2CN(C(=O)C3=CCCCC3)CC[C@H]2O1`, the cytotoxicity at 70.5 h was -2.58%.

For the molecule `O=C(C1CCCC1)N1C[C@@H]2CCNC[C@@H]21`, the cytotoxicity at 70.5 h is -9.43%.

For `CCN1C(=O)C(c2ccccc2)CC12CCN(c1ncccn1)CC2` (configuration not stated), the cytotoxicity at 70.5 h is -18.6%.

As to `O=C(c1ccsc1)N1C[C@@H]2CCN(C(=O)c3cccc(F)c3)[C@@H]2C1`, the cytotoxicity at 70.5 h was -11.5%.

`O=C(NC1CCCC1)c1n[nH]c2c1CNCC2`: the cytotoxicity at 70.5 h is -12.1%.

Take `O=C(NC1CCC1)c1n[nH]c2c1CNCC2`: the cytotoxicity at 70.5 h was -8.89%.

For `CC(C)CC(=O)N1CCC2(CC1)NC(=O)[C@H]1CN(C(=O)N(C)C)C[C@H]12`, the cytotoxicity at 70.5 h was -7.99%.

Regarding `CC(=O)N1CCc2[nH]nc(C(=O)N3CCOCC3)c2C1`, the cytotoxicity at 70.5 h is -4.57%.

As to `O=C(Nc1cccnc1)c1noc2c1CN(S(=O)(=O)C1CC1)CC2`, the cytotoxicity at 70.5 h is -12.1%.

Turning to `CC(C)CC(=O)N[C@H](C)c1c(-c2ccc(Cl)cc2)noc1C(=O)O`, the cytotoxicity at 70.5 h was -7.33%.

Regarding `CNC(=O)[C@@H](CC(C)C)N1CCC[C@H]1C(=O)N(C)Cc1ccccc1`, the cytotoxicity at 70.5 h was -7.93%.

Take `N#CC1(C(=O)NCC2CCC3(CCNCC3)O2)CC1` (configuration not stated): the cytotoxicity at 70.5 h worked out at 20%.

For the molecule `CNC(=O)[C@@H](C1CCCCC1)N1CCC[C@H]1C(=O)NCCN1CCCC1`, the cytotoxicity at 70.5 h turned out to be 3.4%.

As to `Cc1noc(C)c1CNC[C@@]1(COc2cccnc2)C[C@@H](O)[C@@H](O)C1`, the cytotoxicity at 70.5 h is -8.56%.

As to `COCc1nn(CC2CC2)c2c1CN(Cc1cccs1)CC2`, the cytotoxicity at 70.5 h was -8.23%.

For `CS(=O)(=O)N1CCC2(CC1)CN(CC1CC1)CC21CCNC1=O` (configuration not stated), the cytotoxicity at 70.5 h is -9.45%.

`CC(C)CN1CCC2(CC1)CN(C(=O)C(C)C)C2`: the cytotoxicity at 70.5 h was -9.29%.

Regarding `CCOCc1nn(CC2CC2)c2c1CN(Cc1ccco1)CC2`, the cytotoxicity at 70.5 h was -6.88%.

As to `O=C1CCC2(CCCN(C(=O)c3ccccn3)CC2)N1` (configuration not stated), the cytotoxicity at 70.5 h was -1.45%.

Regarding `CC(C)OCc1nn(CC2CC2)c2c1CN(Cc1ccco1)CC2`, the cytotoxicity at 70.5 h is -1.8%.

In the case of `Cc1ccc(CN2CCC3(CCCC(=O)N3)CC2)s1`, the cytotoxicity at 70.5 h is -3.64%.

As for `O=C1CCCC2(CCN(C(=O)c3ccccn3)CC2)N1`, the cytotoxicity at 70.5 h was -1.46%.

In the case of `CC(C)CN1C[C@@H]2C(=O)N(C)C3(CCN(C(=O)C(C)C)CC3)[C@@H]2C1`, the cytotoxicity at 70.5 h was -6.33%.

As to `CCN1CCN(C)C(=O)C12CCN(Cc1ccsc1)CC2`, the cytotoxicity at 70.5 h is -13%.

For the molecule `COCc1nn(C)c2c1CN(Cc1cnn(C)c1)CC2`, the cytotoxicity at 70.5 h is -11.4%.

With `O=S(=O)(c1cccs1)N1CC[C@H]2[C@H]1CCN2CC1CC1`, the cytotoxicity at 70.5 h was -9.72%.

With `Cc1cccc(C(=O)N2C[C@@H]3[C@H](CC(=O)NC(C)C)[C@@H]3C2)n1`, the cytotoxicity at 70.5 h was -9.84%.

Turning to `Cc1ccccc1CN1CCC2(CC1)CN(S(=O)(=O)c1ccccc1)C2`, the cytotoxicity at 70.5 h is -6.98%.

For `CNC(=O)CN1C(=O)CCC12CCCN(Cc1cccc(F)c1)C2` (configuration not stated), the cytotoxicity at 70.5 h was -6.75%.

With `Cc1cc(CN2CC[C@H]3[C@H]2CCN3C)oc1C`, the cytotoxicity at 70.5 h is -5.26%.

Consider `CN1CCC2(CC1)CN(CC1CC1)CC21CCNC1=O` (configuration not stated), for which the cytotoxicity at 70.5 h was -6.91%.

Take `Cc1cccc(C(=O)N2C[C@@H]3[C@H](CC(=O)Nc4cccnc4)[C@@H]3C2)n1`: the cytotoxicity at 70.5 h was -14.3%.

For `Cn1cc(CN2CC[C@@H]3[C@@H]2CCN3Cc2ccc3c(c2)OCO3)cn1`, the cytotoxicity at 70.5 h was -3%.

In the case of `c1cncc(CN2CC[C@@H]3[C@@H]2CCN3Cc2ccc3c(c2)OCO3)c1`, the cytotoxicity at 70.5 h was found to be 0.903%.
